Patent EP3478687B1 (Daewoong Pharmaceutical Co., Ltd., priority 2016, dated 2018)
Where a name gives a salt, the structure may show the parent alone.

Legend:
[1] = biological target: T1, Recombinant purified human JAK3 (Homo sapiens, UniProt P52333); assay: JAK3 kinase inhibitory activity, ADP-Glo kinase assay (Promega V9441); format: biochemical; settings: for IC50: ATP 5 uM, 4 ng JAK3 per reaction, 1 hour 30 °C, chemiluminescence
T1 construct: purchased Promega V9441
T1 sequence (P52333 1-1124): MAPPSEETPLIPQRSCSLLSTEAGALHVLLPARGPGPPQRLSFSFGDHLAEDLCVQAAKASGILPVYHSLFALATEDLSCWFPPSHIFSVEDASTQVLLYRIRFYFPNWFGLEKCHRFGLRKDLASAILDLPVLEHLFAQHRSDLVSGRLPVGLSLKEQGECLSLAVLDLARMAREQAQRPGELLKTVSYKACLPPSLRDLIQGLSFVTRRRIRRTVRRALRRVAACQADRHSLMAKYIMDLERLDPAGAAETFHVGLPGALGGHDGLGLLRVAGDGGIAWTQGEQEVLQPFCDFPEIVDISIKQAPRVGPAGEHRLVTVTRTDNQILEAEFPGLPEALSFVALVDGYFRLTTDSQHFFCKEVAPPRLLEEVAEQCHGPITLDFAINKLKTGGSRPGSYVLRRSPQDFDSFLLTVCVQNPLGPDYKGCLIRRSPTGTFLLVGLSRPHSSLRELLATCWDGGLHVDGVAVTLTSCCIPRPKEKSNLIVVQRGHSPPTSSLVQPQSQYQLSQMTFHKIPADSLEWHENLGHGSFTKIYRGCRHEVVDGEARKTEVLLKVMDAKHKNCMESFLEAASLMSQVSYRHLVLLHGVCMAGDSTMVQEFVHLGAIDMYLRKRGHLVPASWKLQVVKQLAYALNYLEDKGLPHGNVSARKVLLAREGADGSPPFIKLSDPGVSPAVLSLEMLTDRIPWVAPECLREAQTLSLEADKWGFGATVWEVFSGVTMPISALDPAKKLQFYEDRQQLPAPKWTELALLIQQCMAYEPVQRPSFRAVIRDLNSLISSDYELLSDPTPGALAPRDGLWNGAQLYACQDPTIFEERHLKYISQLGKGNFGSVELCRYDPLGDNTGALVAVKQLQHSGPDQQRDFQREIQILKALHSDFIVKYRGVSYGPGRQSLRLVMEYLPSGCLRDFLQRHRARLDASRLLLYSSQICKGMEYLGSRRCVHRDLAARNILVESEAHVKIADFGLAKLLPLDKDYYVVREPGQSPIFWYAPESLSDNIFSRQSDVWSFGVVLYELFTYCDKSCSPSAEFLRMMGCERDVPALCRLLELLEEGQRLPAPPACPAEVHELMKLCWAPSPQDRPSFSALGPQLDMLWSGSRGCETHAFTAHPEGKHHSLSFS
Description: (§1) JAK3 and BTK kinase inhibitory activities were measured for the compounds prepared in the above Examples through in vitro analysis on the ADP Glow (Glo) platform.
(§2) Specifically, the inhibitory activities of JAK3 and BTK kinase were measured using a JAK3 kinase assay kit (Promega, V9441) and a BTK kinase assay kit (Promega, V9071) which were purchased from Promega. Recombinant purified human JAK3 and BTK were diluted with 1 x kinase reaction buffer (JAK3: 40 mM Tris-Cl, pH 7.5, 20 mM MgCh, 0.1 mg/mL BSA and 50 uM DTT / BTK: 40 mM Tris-Cl, pH 7.5, 20 mM MgCl2, 0.1 mg/mL BSA, 2 mM MnCl2 and 50 uM DTT) and added to a 96 well plate (JAK3: final concentration of 4 ng per reaction/BTK: final concentration of 8 ng per reaction). The compounds were treated so as to be finally a 1% DMSO aqueous solution, and a substrate cocktail containing ATP (JAK3: final concentration of 5 uM / BTK: final concentration of 10 uM) and 0.2 µg/µL of Poly(Glu4, Tyr1) peptide (JAK3 and BTK final concentration) in the total 25 µL reactants was added to a 96-well plate to initiate enzymatic reaction. After incubation (30 °C) for 1 hour, equivalent volume (25 µL per reaction) of ADP Glo was added and incubated (30 °C) for 40 minutes at room temperature. Then, a kinase detection reagent (50 µL per reaction) was added and incubated (30 °C) for 30 minutes at room temperature. The kinase activity was measured by chemiluminescence according to the instructions of ADP Glo kinase assay kit, and the inhibitory activity of the compounds according to the present invention was calculated. For the analysis of the results of each compound, Microsoft Excel was used, and IC50 values were calculated by SigmaPlot software.

[2] = biological target: T2, Recombinant purified human BTK (Homo sapiens, UniProt Q06187); assay: BTK kinase inhibitory activity, ADP-Glo kinase assay (Promega V9071); format: biochemical; settings: for IC50: ATP 10 uM, 8 ng BTK per reaction, 1 hour 30 °C, chemiluminescence
T2 construct: purchased Promega V9071
T2 sequence (Q06187 whole entry): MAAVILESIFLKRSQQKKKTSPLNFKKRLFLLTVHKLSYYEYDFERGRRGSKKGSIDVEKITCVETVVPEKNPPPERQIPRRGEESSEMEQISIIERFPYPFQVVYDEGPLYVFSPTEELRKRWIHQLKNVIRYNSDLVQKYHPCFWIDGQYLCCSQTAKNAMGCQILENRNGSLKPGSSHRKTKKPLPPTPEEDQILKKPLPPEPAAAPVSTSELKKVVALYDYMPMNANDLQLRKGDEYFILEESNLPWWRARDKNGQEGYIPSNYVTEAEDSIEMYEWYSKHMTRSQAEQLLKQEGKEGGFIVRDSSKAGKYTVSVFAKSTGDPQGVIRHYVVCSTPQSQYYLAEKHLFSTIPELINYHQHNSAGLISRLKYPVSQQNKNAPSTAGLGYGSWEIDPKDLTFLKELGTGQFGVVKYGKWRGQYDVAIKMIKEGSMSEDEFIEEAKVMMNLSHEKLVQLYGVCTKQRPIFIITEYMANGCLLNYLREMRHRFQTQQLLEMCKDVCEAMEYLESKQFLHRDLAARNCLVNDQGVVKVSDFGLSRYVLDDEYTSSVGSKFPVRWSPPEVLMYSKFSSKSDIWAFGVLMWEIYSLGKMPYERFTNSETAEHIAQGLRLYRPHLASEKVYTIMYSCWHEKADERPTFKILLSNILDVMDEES
Description: as §1, §2

SMILES | IC50 [1] [nM] | IC50 [2] [nM] | inhibition at 0.1 µM ([1]; @100nM compound, printed in the JAK3 IC50 column) [%] | inhibition at 0.1 µM ([2]; @100nM compound) [%]
C=CC(=O)N1CCC[C@@H](Nc2nc(Nc3cnn(CC)c3)nc3[nH]ncc23)C1 [Example 33, (R)-1-(3-(6-(1-ethyl-1H-pyrazol-4-ylamino)-1H-pyrazolo[3,4-d]pyrimidin-4-ylamino)piperidin-1-yl)prop-2-en-1-one] | 4.9 | 1.6 |  | 
N#CCC(=O)N1CCC[C@@H](Nc2nc(Nc3cnn(C4CC4)c3)nc3[nH]nc(Cl)c23)C1 [Example 139, (R)-3-(3-((3-chloro-6-((1-cyclopropyl-1H-pyrazol-4-yl)amino)-1H-pyrazolo[3,4-d]pyrimidin-4-yl)amino)piperidin-1-yl)-3-oxopropanenitrile] | > 80 | 143 |  | 
C=CC(=O)N1CCC[C@@H](Nc2nc(Nc3cnn(CC(F)F)c3)nc3[nH]nc(Cl)c23)C1 [Example 44, (R)-1-(3-(3-chloro-6-(1-(2,2-difluoroethyl)-1H-pyrazol-4-ylamino)-1H-pyrazolo[3,4-d]pyrimidin-4-ylamino)piperidin-1-yl)prop-2-en-1-one] | 0.3 | 2.5 |  | 
C=CC(=O)N1CCC[C@@H](N(C)c2nc(Nc3cnoc3)nc3[nH]ccc23)C1 [Example 102] | 13.2 | 146 |  | 
C=CC(=O)N1CCC[C@@H](Nc2nc(Nc3cnn(C(F)F)c3)nc3[nH]cc(Cl)c23)C1 [Example 38, (R)-1-(3-(5-chloro-2-(1-(difluoromethyl)-1H-pyrazol-4-ylamino)-7H-pyrrolo[2,3-d]pyrimidin-4-ylamino)piperidin-1-yl)prop-2-en-1-one] | 0.1 | 4.3 |  | 
C=CC(=O)N1CC[C@@H](C)[C@@H](Nc2nc(Nc3cnn(CC)c3)nc3[nH]nc(Cl)c23)C1 [Example 92, 1-((3R,4R)-3-((3-chloro-6-((1-ethyl-1H-pyrazol-4-yl)amino)-1H-pyrazolo[3,4-d]pyrimidin-4-yl)amino)-4-methylpiperidin-1-yl)prop-2-en-1-one] | 4.5 | 2.1 |  | 
C=CC(=O)N1CCC[C@H](Nc2nc(Nc3cccc(NC(=O)N4CCCC4)c3)nc3[nH]ccc23)C1 [Example 3, (S)-N-(3-(4-(1-acryloylpiperidin-3-ylamino)-7H-pyrrolo[2,3-d]pyrimidin-2-ylamino)phenyl)pyrrolidine-1-carboxamide] |  |  | 28.2 | 30
C=CC(=O)N1CCC[C@@H](Nc2nc(Nc3ccc(C(=O)N4CCOCC4)cc3)nc3[nH]ccc23)C1 [Example 8, (R)-1-(3-(2-(4-(morpholine-4-carbonyl)phenylamino)-7H-pyrrolo[2,3-d]pyrimidin-4-ylamino)piperidin-1-yl)prop-2-en-1-one] | 1.3 | 14.3 |  | 
C=CC(=O)N1CCC[C@@H](Sc2nc(Nc3cnn(CC)c3)nc3[nH]nc(Cl)c23)C1 [Example 111, (R)-1-(3-((3-chloro-6-((1-ethyl-1H-pyrazol-4-yl)amino)-1H-pyrazolo[3,4-d]pyrimidin-4-yl)thio)piperidin-1-yl)prop-2-en-1-one] | 1.1 | 1.3 |  | 
C=CC(=O)N1CCC[C@@H](Nc2nc(Nc3cnn(CC(C)C)c3)nc3[nH]cc(Cl)c23)C1 [Example 63, (R)-1-(3-((5-chloro-2-((1-isobutyl-1H-pyrazol-4-yl)amino)-7H-pyrrolo[2,3-d]pyrimidin-4-yl)amino)piperidin-1-yl)prop-2-en-1-one] | 0.3 | 1.7 |  | 
C=CC(=O)N1CCC[C@@H](Nc2nc(Nc3cnn(CC(F)F)c3)nc3[nH]nc(Cl)c23)C1 [Example 90, (R)-1-(3-((3-chloro-6-((1-(2,2-difluoroethyl)-1H-pyrazol-4-yl)amino)-1H-pyrazolo [3,4-d]pyrimidin-4-yl)amino)piperidin-1-yl)prop-2-en-1-one hydrochloride] | 0.5 | 1 |  | 
C=CC(=O)N1CCC[C@@H](Nc2nc(Nc3cnn(CCN4CCOCC4)c3)nc3[nH]cc(Cl)c23)C1 [Example 40, (R)-1-(3-(5-chloro-2-(1-(2-morpholinoethyl)-1H-pyrazol-4-ylamino)-7H-pyrrolo [2,3-d]pyrimidin-4-ylamino)piperidin-1-yl)prop-2-en-1-one] | 0.2 | 1.8 |  | 
C=CC(=O)N1CCC[C@@H](Nc2nc(Nc3cnn(CC(F)(F)F)c3)nc3[nH]ncc23)C1 [Example 144, (R)-1-(3-((6-((1-(2,2,2-trifluoroethyl)-1H-pyrazol-4-yl)amino)-1H-pyrazolo[3,4-d]pyrimidin-4-yl)amino)piperidin-1-yl)prop-2-en-1-one] | 1.4 | 1.5 |  | 
C=CC(=O)N1CC[C@@H](C)[C@@H](Nc2nc(Nc3cnn(CCN(CC)CC)c3)nc3[nH]nc(Cl)c23)C1 [Example 122, 1-((3R,4R)-3-((3-chloro-6-((1-(2-(diethylamino)ethyl)-1H-pyrazol-4-yl)amino)-1H-pyrazolo[3,4-d]pyrimidin-4-yl)amino)-4-methylpiperidin-1-yl)prop-2-en-1-one] | 8.1 | 6 |  | 
C=CC(=O)N1CCC[C@@H](Nc2nc(Nc3cnn(CCN4CCOCC4)c3)nc3[nH]ccc23)C1 [Example 18, (R)-1-(3-(2-(1-(2-morpholinoethyl)-1H-pyrazol-4-ylamino)-7H-pyrrolo[2,3-d]pyrimidin-4-ylamino)piperidin-1-yl)prop-2-en-1-one] | 0.3 | 8.8 |  | 
C=CC(=O)N1CCC[C@@H](Nc2nc(Nc3cnn(CC)c3)nc3[nH]cc(F)c23)C1 [Example 82, (R)-1-(3-((2-((1-ethyl-1H-pyrazol-4-yl)amino)-5-fluoro-7H-pyrrolo[2,3-d]pyrimidin-4-yl)amino)piperidin-1-yl)prop-2-en-1-one] | 0.3 | 0.9 |  | 
C=CC(=O)N1CC[C@@H](F)[C@@H](Nc2nc(Nc3cnn(CC)c3)nc3[nH]nc(Cl)c23)C1 [Example 193, 1-((3S,4R)-3-((3-chloro-6-((1-ethyl-1H-pyrazol-4-yl)amino)-1H-pyrazolo[3,4-d]pyrimidin-4-yl)amino)-4-fluoropiperidin-1-yl)prop-2-en-1-one] | 0.5 | 0.9 |  | 
C=CC(=O)N1CC[C@@H](C)[C@@H](Nc2nc(Nc3cnn(CC(F)F)c3)nc3[nH]nc(Cl)c23)C1 [Example 93, 1-((3R,4R)-3-((3-chloro-6-((1-(2,2-difluoroethyl)-1H-pyrazol-4-yl)amino)-1H-pyrazolo [3,4-d]pyrimidin-4-yl)amino)-4-methylpiperidin-1-yl)prop-2-en-1-one] | 2 | 1.3 |  | 
C=CC(=O)N1CCC[C@@H](Nc2nc(Nc3cnn(C(F)F)c3)nc3[nH]ncc23)C1 [Example 34, (R)-1-(3-(6-(1-(difluoromethyl)-1H-pyrazol-4-ylamino)-1H-pyrazolo [3,4-d]pyrimidin-4-ylamino)piperidin-1-yl)prop-2-en-1-one] | 3.4 | 2.1 |  | 
C=CC(=O)N1CCC[C@@H](Nc2nc(Nc3cnn(CCN(CC)CC)c3)nc3[nH]cc(Cl)c23)C1 [Example 95, (R)-1-(3-((5-chloro-2-((1-(2-(diethylamino)ethyl)-1H-pyrazol-4-yl)amino)-7H-pyrrolo[2,3-d]pyrimidin-4-yl)amino)piperidin-1-yl)prop-2-en-1-one] | 0.5 | 5.9 |  | 
